Data from PubChem BioAssay AID1259407 (Chemical Carcinogenesis Research Information System (CCRIS), 2018).
The source made the active and inactive calls. No rule for the calls is given here.

Tested on: CCRIS mutagenicity, Ames/micronucleus/aberration tests
Assay: CCRIS mutagenicity studies
[1] = Test System: AMES SALMONELLA TYPHIMURIUM, Strain/Indicator: TA98, Metabolic Activation: NONE, Method: PREINCUBATION
[2] = Test System: AMES SALMONELLA TYPHIMURIUM, Strain/Indicator: TA100, Metabolic Activation: NONE, Method: PREINCUBATION
[3] = Test System: AMES SALMONELLA TYPHIMURIUM, Strain/Indicator: TA1535, Metabolic Activation: NONE, Method: PREINCUBATION
[4] = Test System: AMES SALMONELLA TYPHIMURIUM, Strain/Indicator: TA1537, Metabolic Activation: NONE, Method: PREINCUBATION
[5] = Test System: AMES SALMONELLA TYPHIMURIUM, Strain/Indicator: TA100, Metabolic Activation: NONE, Method: STANDARD PLATE

With `Oc1ccc(Cl)c(Cl)c1` the mutagenic call (Test System: AMES SALMONELLA TYPHIMURIUM, Strain/Indicator: TA98, Metabolic Activation: HAMSTER, LIVER, S-9, AROCLOR 1254, Method: PREINCUBATION) was “inactive; negative”, the mutagenic call [1] was “inactive; negative” and the mutagenic call (Test System: AMES SALMONELLA TYPHIMURIUM, Strain/Indicator: TA98, Metabolic Activation: RAT, LIVER, S-9, AROCLOR 1254, Method: PREINCUBATION) was “inactive; negative”. The mutagenic call (Test System: AMES SALMONELLA TYPHIMURIUM, Strain/Indicator: TA100, Metabolic Activation: HAMSTER, LIVER, S-9, AROCLOR 1254, Method: PREINCUBATION) was “inactive; negative”, the mutagenic call [2] was “inactive; negative” and the mutagenic call (Test System: AMES SALMONELLA TYPHIMURIUM, Strain/Indicator: TA100, Metabolic Activation: RAT, LIVER, S-9, AROCLOR 1254, Method: PREINCUBATION) was “inactive; negative”. For the same compound, the mutagenic call (Test System: AMES SALMONELLA TYPHIMURIUM, Strain/Indicator: TA1535, Metabolic Activation: HAMSTER, LIVER, S-9, AROCLOR 1254, Method: PREINCUBATION) was “inactive; negative”, the mutagenic call [3] was “inactive; negative” and the mutagenic call (Test System: AMES SALMONELLA TYPHIMURIUM, Strain/Indicator: TA1535, Metabolic Activation: RAT, LIVER, S-9, AROCLOR 1254, Method: PREINCUBATION) was “inactive; negative”. For the same compound, the mutagenic call (Test System: AMES SALMONELLA TYPHIMURIUM, Strain/Indicator: TA1537, Metabolic Activation: HAMSTER, LIVER, S-9, AROCLOR 1254, Method: PREINCUBATION) was “inactive; negative”, the mutagenic call [4] was “inactive; negative” and the mutagenic call (Test System: AMES SALMONELLA TYPHIMURIUM, Strain/Indicator: TA1537, Metabolic Activation: RAT, LIVER, S-9, AROCLOR 1254, Method: PREINCUBATION) was “inactive; negative”.
`CCCCNN` was tested, and the mutagenic call (Test System: AMES SALMONELLA TYPHIMURIUM, Strain/Indicator: TA100, Metabolic Activation: NONE, Method: PREINCUBATION (11 HR GROWTH PERIOD FOR BACTERIA)) was “active; positive”, the mutagenic call (Test System: AMES SALMONELLA TYPHIMURIUM, Strain/Indicator: TA100, Metabolic Activation: RAT, LIVER, S-9, PCB, Method: PREINCUBATION (11 HR GROWTH PERIOD FOR BACTERIA)) was “inactive; negative” and the mutagenic call (Test System: AMES SALMONELLA TYPHIMURIUM, Strain/Indicator: TA102, Metabolic Activation: NONE, Method: PREINCUBATION (5 OR 7 HR GROWTH PERIOD FOR BACTERIA)) was “active; positive”. The mutagenic call (Test System: AMES SALMONELLA TYPHIMURIUM, Strain/Indicator: TA102, Metabolic Activation: RAT, LIVER, S-9, PCB, Method: PREINCUBATION (5 HR GROWTH PERIOD FOR BACTERIA)) was “inactive; negative” and the mutagenic call (Test System: AMES SALMONELLA TYPHIMURIUM, Strain/Indicator: TA102, Metabolic Activation: RAT, LIVER, S-9, PCB, Method: PREINCUBATION (7 HR GROWTH PERIOD FOR BACTERIA)) was “active; positive”.
In the case of `CCCOS(C)(=O)=O`, the mutagenic call (End Point: IN VITRO MICRONUCLEUS, Test System: MOUSE LYMPHOMA L5178Y CELLS, Metabolic Activation: NONE) is reported as “active; positive”, the mutagenic call (End Point: IN VITRO MICRONUCLEUS, Test System: MOUSE LYMPHOMA L5178Y CELLS, Metabolic Activation: RAT, LIVER, S-9) is reported as “inactive; negative; authors report results as weakly positive” and the mutagenic call (End Point: In vitro micronucleus, Test System: Chinese Hamster Ovary (CHO-WBL) cells, Metabolic Activation: None) is reported as “active; positive (p<0.01)”. The mutagenic call [5] was “active; positive” and the mutagenic call (Test System: AMES SALMONELLA TYPHIMURIUM, Strain/Indicator: TA100, Metabolic Activation: RAT, LIVER, S-9, Method: STANDARD PLATE) was “active; positive”.
In the case of `CCSCCSP(=S)(OC)OC`, the mutagenic call (Test System: AMES SALMONELLA TYPHIMURIUM, Strain/Indicator: TA97A, Metabolic Activation: NONE, Method: STANDARD PLATE) is reported as “inactive; negative”, the mutagenic call (Test System: AMES SALMONELLA TYPHIMURIUM, Strain/Indicator: TA97A, Metabolic Activation: PLANT, HOMOGENATE, S-14, Method: STANDARD PLATE) is reported as “inactive; negative” and the mutagenic call (Test System: AMES SALMONELLA TYPHIMURIUM, Strain/Indicator: TA97A, Metabolic Activation: S-9, Method: STANDARD PLATE) is reported as “inactive; negative”. The mutagenic call (Test System: AMES SALMONELLA TYPHIMURIUM, Strain/Indicator: TA98, Metabolic Activation: NONE, Method: STANDARD PLATE) was “inactive; negative”, the mutagenic call (Test System: AMES SALMONELLA TYPHIMURIUM, Strain/Indicator: TA98, Metabolic Activation: PLANT, HOMOGENATE, S-14, Method: STANDARD PLATE) was “inactive; negative” and the mutagenic call (Test System: AMES SALMONELLA TYPHIMURIUM, Strain/Indicator: TA98, Metabolic Activation: S-9, Method: STANDARD PLATE) was “inactive; negative”. For the same compound, the mutagenic call [5] was “inactive; negative”, the mutagenic call (Test System: AMES SALMONELLA TYPHIMURIUM, Strain/Indicator: TA100, Metabolic Activation: PLANT, HOMOGENATE, S-14, Method: STANDARD PLATE) was “inactive; negative” and the mutagenic call (Test System: AMES SALMONELLA TYPHIMURIUM, Strain/Indicator: TA100, Metabolic Activation: S-9, Method: STANDARD PLATE) was “inactive; negative”. For the same compound, the mutagenic call (Test System: AMES SALMONELLA TYPHIMURIUM, Strain/Indicator: TA1535, Metabolic Activation: PLANT, HOMOGENATE, S-14, Method: STANDARD PLATE) was “inactive; negative”, the mutagenic call (Test System: AMES SALMONELLA TYPHIMURIUM, Strain/Indicator: TA1535, Metabolic Activation: S-9, Method: STANDARD PLATE) was “inactive; negative” and the mutagenic call (Test System: AMES SALMONELLA TYPHIMURIUM, Strain/Indicator: TA1535, Metabolic Activation: S-9 MIX, Method: STANDARD PLATE) was “active; positive”.
`CN(C)CCN(Cc1ccsc1)c1ccccn1` was tested, and the mutagenic call (Test System: AMES SALMONELLA TYPHIMURIUM, Strain/Indicator: TA98, Metabolic Activation: HAMSTER, LIVER, S-9, AROCLOR 1254 (10%), Method: PREINCUBATION) was “inactive; negative”, the mutagenic call [1] was “inactive; negative” and the mutagenic call (Test System: AMES SALMONELLA TYPHIMURIUM, Strain/Indicator: TA98, Metabolic Activation: RAT, LIVER, S-9, AROCLOR 1254 (10%), Method: PREINCUBATION) was “inactive; negative”. The mutagenic call (Test System: AMES SALMONELLA TYPHIMURIUM, Strain/Indicator: TA100, Metabolic Activation: HAMSTER, LIVER, S-9, AROCLOR 1254 (10%), Method: PREINCUBATION) was “inactive; negative”, the mutagenic call [2] was “inactive; negative” and the mutagenic call (Test System: AMES SALMONELLA TYPHIMURIUM, Strain/Indicator: TA100, Metabolic Activation: RAT, LIVER, S-9, AROCLOR 1254 (10%), Method: PREINCUBATION) was “inactive; negative”. For the same compound, the mutagenic call (Test System: AMES SALMONELLA TYPHIMURIUM, Strain/Indicator: TA1535, Metabolic Activation: HAMSTER, LIVER, S-9, AROCLOR 1254 (10%), Method: PREINCUBATION) was “inactive; negative”, the mutagenic call [3] was “inactive; negative” and the mutagenic call (Test System: AMES SALMONELLA TYPHIMURIUM, Strain/Indicator: TA1535, Metabolic Activation: RAT, LIVER, S-9, AROCLOR 1254 (10%), Method: PREINCUBATION) was “inactive; negative”. For the same compound, the mutagenic call (Test System: AMES SALMONELLA TYPHIMURIUM, Strain/Indicator: TA1537, Metabolic Activation: HAMSTER, LIVER, S-9, AROCLOR 1254 (10%), Method: PREINCUBATION) was “inactive; negative”, the mutagenic call [4] was “inactive; negative” and the mutagenic call (Test System: AMES SALMONELLA TYPHIMURIUM, Strain/Indicator: TA1537, Metabolic Activation: RAT, LIVER, S-9, AROCLOR 1254 (10%), Method: PREINCUBATION) was “inactive; negative”.
